Patent publication US10537518B2, “Homogenization system of drugs into biodegradable polymer: smart polymer system” (Juvic Inc., priority 2015, dated 2020)

Key:
[1] = Particle size analysis with particle size analyzer; assay type: physicochemical; details: for size of commercially available crystalline drug: crude powder, before homogenization
Protocol: Particle size analysis was performed using a particle size analyzer (Schimdzu, Japan). […] To uniformly mix drugs having a polymer combination and a colloid formulation, the drugs were homogenized at an optimum rotary speed of 21,000 rpm for 5 minutes using a rotor homogenizer (Homogenizer Power Gen 500, Fisher Scientific, USA). Ultrasonication was performed at […] using an ultrasonicator (Sonic vibra cell, USA). In the size analysis, distilled water was used as a solvent, and an average of values obtained reading each of samples three times was calculated. The particle size reading was performed at an interval of 30 minutes due to the tendency of the drug to be crystallized when the drug is exposed to distilled water for a long period of time.

[2] = Colloid morphology and size by scanning electron microscope (SEM); assay type: physicochemical; details: colloids of HA and PVP 1:1 with drug
Protocol: (§1) The morphology of a colloidal structure of a polymer was analyzed using a scanning electron microscope (SEM; equipped with Type JEOL (JSM-7001F) energy-dispersive X-ray (EDX) Oxford ISIS 300 micro-analysis system). For this experiment, platinum coating was performed at 10 mA to protect colloids from high-energy beams. Also, a decrease in the size of the colloids was confirmed using a transmission electron microscope (TEM), and this confirmation was performed on a very thin sample formed on a copper grid as an upper cover provided in the grid. A TEM micrograph was obtained at 120 kV using a JEM 2010 (HC) (JEOL Ltd, USA) microscope. The amorphous form of the drug in the colloidal structure was confirmed using a random XRD analysis on the sample, and continuously scanned at intervals of 3-80° 2θ using an Ultima IV diffractometer (Rigaku Corporation, Japan) with Bragg-Brentano geometry (2θ/θ) having 40 kV/30 mA X-ray and K-beta filter radiations.

[3] = Colloid size by transmission electron microscope (TEM); assay type: physicochemical; details: colloids of HA and PVP 1:1 with drug
Protocol: as §1

[4] = In vitro drug release by Franz cell diffusion; assay type: in vitro ADME; details: pig skin; for release of drug from SPS microneedles: n=3; for time to diffusion after application: from SPS microneedles
Protocol: In vitro analysis was performed using Franz cell diffusion. Microneedles containing 0.1% NR and 0.75% CAP were applied onto the skin of a dead pig, and put on donor moieties of Franz cells. A receptor moiety was composed of PBS including 20% ethanol. A sample was analyzed at intervals of 0, 0.5, 1, 2, 3, 4, 5, 6, 12, and 24 hours. The quantification of NR and CAP was performed at 559 nm and 280 nm using UV-Vis spectroscopy (Jasco, V650) and Ultra Performance Liquid Chromatography (UPLC) (Acquity UPLC, Waters), respectively. The amounts of NR and CAP in a microneedle patch were determined by dissolving the patch in PBS including 10% ethyl acetate and 20% ethanol, respectively. Thereafter, solid-phase extraction was performed using ethyl acetate as an eluent. A microneedle patch having no drug was used as the control. 0.1% NR dissolved in 20% ethyl acetate and CAP dissolved in 40% ethanol were used in a topical formulation model. This model was most widely used for a formulation of a lipophilic compound in which an organic solvent was used to dissolve the lipophilic drug. 1 mL of such a topical formulation was dropped on the skin of a pig until the topical formulation was diffused to an area of approximately 2 cm^2.
Also, the size of CAP particles released during diffusion of the Franz cells in the skin of a dead pig (FIG. 4C) was measured. PBS solution samples were taken from the Franz cell receptor after 0, 6, 12, 24 hours of application of the CAP microneedles, and the particle sizes of the samples were measured through SEM image analysis.

IL-1β = test: Serum IL-1β by ELISA in CIA mice; assay type: in vivo, DBA/1 mice; details: versus RA model
[5] = cited from earlier work
[6] = homogenized with CMC (10% by weight), 0.1% NR, 0.75% CAP
[7] = homogenized with HA (10% by weight), 0.1% NR, 0.75% CAP
[8] = homogenized with PVA (10% by weight), 0.1% NR, 0.75% CAP
[9] = homogenized with PVP (10% by weight), 0.1% NR, 0.75% CAP
[10] = homogenized, polymer composition: None
[11] = in HA and PVP (1:1) smart polymer system

| release of drug from SPS microneedles ([4]; 0.1% NR microneedles, after 8 hours of application) | Structure (SMILES) | size of commercially available crystalline drug [1] | particle size [1, 6] | particle size [1, 7] | particle size [1, 8] | particle size [1, 9] | particle size [1, 10] | particle size [1, 11] | circular colloidal particle size (SEM) [2] | colloidal structure particle size (TEM) [3] | release of drug from SPS microneedles ([4]; 0.75% CAP microneedles, after 12 hours of application) | time to diffusion after application [4] | decrease of serum IL-1β level (IL-1β) | log P [5] |
| --- | --- | --- | --- | --- | --- | --- | --- | --- | --- | --- | --- | --- | --- | --- |
| – | COc1cc(CNC(=O)CCCC/C=C/C(C)C)ccc1O [CAP, capsaicin] | 4.845±3 μm | 43.856 ± 3 μm | 9.736 ± 2 μm | 2.676 ± 7 μm | 1.432 ± 3 μm | 0.986±6 μm | 167.4±4 nm | approximately 155±8 nm | 154±3 nm | 86% | within an hour | approximately 50% | – |
| 74% | CCN(CC)c1ccc2nc3c4ccccc4c(=O)cc-3oc2c1 [NR, Nile Red] | 6.723±5 μm | 67.733 ± 8 μm | 11.083 ± 4 μm | 4.243 ± 8 μm | 1.564 ± 3 μm | 1.797±7 μm | 157.4±6 nm | approximately 168±12 nm | 161±32 nm | – | ≤ 30 min | – | 5 |
